Laboratory results taken from DBAASP.
In brackets after ≈: the same amount, converted by molar mass.

How the values were obtained:
Assay in all cases: ≥ marks a high value that may be exact or a test limit, other limits are often not marked, values filed in µg/mL are converted to µM
Micrococcus luteus A270 = tested on: Micrococcus luteus A270
Escherichia coli = tested on: Escherichia coli
Listeria innocua = tested on: Listeria innocua
Pseudomonas aeruginosa = tested on: Pseudomonas aeruginosa
Acinetobacter baumannii = tested on: Acinetobacter baumannii
[1] = tested on: Escherichia coli ATCC 25922
Enterococcus faecium = tested on: Enterococcus faecium
Streptococcus pneumoniae = tested on: Streptococcus pneumoniae
Klebsiella pneumoniae = tested on: Klebsiella pneumoniae
[2] = tested on: Staphylococcus aureus ATCC 43300
Salmonella typhimurium = tested on: Salmonella typhimurium
[3] = tested on: Micrococcus luteus ATCC 9341
Staphylococcus aureus = tested on: Staphylococcus aureus
Candida albicans = tested on: Candida albicans
[4] = tested on: Cryptococcus neoformans ATCC 208821
[5] = tested on: Klebsiella pneumoniae ATCC 700603
[6] = tested on: Bacillus subtilis ATCC 6051
[7] = tested on: Candida albicans ATCC 90028
[8] = tested on: Acinetobacter baumannii ATCC 19606
[9] = tested on: Klebsiella pneumoniae ATCC 13883
[10] = tested on: Pseudomonas aeruginosa ATCC 27853
[11] = tested on: Klebsiella pneumoniae ATCC BAA-2146
[12] = tested on: Escherichia coli DH5alpha
Staphylococcus xylosus = tested on: Staphylococcus xylosus

Row | SMILES | MIC (Pseudomonas aeruginosa) [µM] | MIC (Acinetobacter baumannii) [µM] | MIC [1] [µM] | MIC (Klebsiella pneumoniae) [µM] | MIC [2] [µM] | MIC [4] [µM] | MIC [5] [µM] | MIC [6] [µM] | MIC [7] [µM] | MIC [8] [µM] | MIC [9] [µM] | MIC [10] [µM] | MIC [11] [µM] | MIC [12] [µM] | MIC (Staphylococcus xylosus) [µM] | further results
1 | CC(C)[C@H](NC(=O)[C@@H]1CCCN1C(=O)[C@@H](NC(=O)[C@H](Cc1ccccc1)NC(=O)[C@H](CCC(=O)O)NC(=O)[C@H](CCCCN)NC(=O)CNC(=O)[C@H](Cc1ccccc1)NC(=O)[C@H](CC(N)=O)NC(=O)[C@H](CCCN=C(N)N)NC(=O)[C@H](C)N)[C@@H](C)O)C(=O)O [ARNFGKEFTPV] | – | – | – | – | – | – | – | – | – | – | – | – | – | – | – | MIC (Micrococcus luteus A270): 6 µM (≈ 7.59 µg/mL); MIC (Escherichia coli): 12 µM (≈ 15.2 µg/mL); MIC (Listeria innocua): 6 µM (≈ 7.59 µg/mL)
2 | CC[C@H](C)[C@H](NC(=O)[C@H](Cc1cnc[nH]1)NC(=O)CNC(=O)CN)C(=O)N[C@@H](CCCN=C(N)N)C(=O)N[C@@H](CCCN=C(N)N)C(=O)N[C@H](C(=O)N[C@H](C(=O)N[C@@H](CCCN=C(N)N)C(=O)N[C@@H](CCCCN)C(=O)N[C@H](C(=O)N[C@H](C(=O)N[C@@H](Cc1cnc[nH]1)C(=O)N[C@H](C(=O)N[C@H](C(=O)N[C@@H](CCCCN)C(=O)N[C@@H](CCCCN)C(=O)NCC(=O)NCC(=O)N[C@@H](CS)C(N)=O)[C@@H](C)CC)[C@@H](C)CC)[C@@H](C)CC)[C@@H](C)CC)[C@@H](C)CC)[C@@H](C)CC [GGHIRRIIRKIIHIIKKGGC] | 4 (≈ 9.07 µg/mL) | 10.7 (≈ 24.3 µg/mL) | 1.3 (≈ 2.95 µg/mL) | 8 (≈ 18.1 µg/mL) | 1.5 (≈ 3.4 µg/mL) | – | – | – | – | – | – | – | – | – | – | MIC (Enterococcus faecium): 3.3 µM (≈ 7.48 µg/mL); MIC (Streptococcus pneumoniae): 4 µM (≈ 9.07 µg/mL)
3 | CC[C@H](C)[C@H](N)C(=O)N[C@@H](CC(C)C)C(=O)N1CCC[C@H]1C(=O)N[C@@H](Cc1c[nH]c2ccccc12)C(=O)N[C@@H](CCCCN)C(=O)N[C@@H](Cc1c[nH]c2ccccc12)C(=O)N1CCC[C@H]1C(=O)N[C@@H](Cc1c[nH]c2ccccc12)C(=O)N[C@@H](Cc1c[nH]c2ccccc12)C(=O)N1CCC[C@H]1C(=O)N[C@@H](C)C(=O)N[C@@H](CCCN=C(N)N)C(=O)N[C@@H](CCCN=C(N)N)C(N)=O [ILPWKWPWWPARR] | – | – | – | – | – | – | – | – | – | – | – | – | – | – | – | MIC (Salmonella typhimurium): 2.79 µM (≈ 5 µg/mL); MIC [3]: 1.6 µM (≈ 2.87 µg/mL); MIC (Staphylococcus aureus): 44.6 µM (≈ 80 µg/mL); MIC (Candida albicans): 0.0045 µM (≈ 0.00806 µg/mL); MIC (Escherichia coli): 2.79 µM (≈ 5 µg/mL)
4 | CC[C@H](C)[C@@H]1NC(=O)CNC(=O)[C@H](CCCN=C(N)N)NC(=O)[C@H](Cc2ccc(O)cc2)NC(=O)[C@@H]2CSSC[C@H](NC1=O)C(=O)N[C@@H](Cc1ccc(O)cc1)C(=O)N[C@@H](CCCN=C(N)N)C(=O)N[C@@H](CCCN=C(N)N)C(=O)N[C@H](C(=O)N[C@@H](CCCN=C(N)N)C(=O)O)CSSC[C@H](NC(=O)[C@H](C)NC(=O)[C@@H](N)CCCCN)C(=O)N[C@@H](Cc1ccccc1)C(=O)N[C@@H](CCCN=C(N)N)C(=O)N[C@@H](C(C)C)C(=O)N2 [KACFRVCYRGICYRRCR] | 1.86 (≈ 3.99 µg/mL) | 0.232 (≈ 0.499 µg/mL) | 0.116 (≈ 0.25 µg/mL) | > 7.43 | 3.71 (≈ 7.99 µg/mL) | 0.232 (≈ 0.499 µg/mL) | 0.464 (≈ 0.998 µg/mL) | 0.232 (≈ 0.499 µg/mL) | 3.71 (≈ 7.99 µg/mL) | 0.232 (≈ 0.499 µg/mL) | 0.232 (≈ 0.499 µg/mL) | 0.232 (≈ 0.499 µg/mL) | 0.464 (≈ 0.998 µg/mL) | – | – | –
5 | NCCCC[C@H](NC(=O)[C@H](CCCN=C(N)N)NC(=O)[C@H](CCCCN)NC(=O)CNC(=O)[C@H](CO)NC(=O)CNC(=O)[C@H](CCCCN)NC(=O)[C@H](CCCN=C(N)N)NC(=O)[C@@H](N)CCCCN)C(=O)O [KRKGSGKRK] | – | – | – | – | – | – | – | – | – | – | – | – | – | ≥ 64 | ≥ 64 | –
6 | CC[C@H](C)[C@H](NC(=O)[C@H](CC(C)C)NC(=O)[C@H](CCCCN)NC(=O)[C@H](CCCN=C(N)N)NC(=O)[C@@H](N)CCCCN)C(=O)N[C@@H](CCCCN)C(=O)N[C@@H](CCCN=C(N)N)C(=O)N[C@@H](CCCCN)C(=O)O [KRKLIKRK] | – | – | – | – | – | – | – | – | – | – | – | – | – | ≥ 64 | ≥ 64 | –
7 | CC[C@H](C)[C@H](NC(=O)[C@H](CC(C)C)NC(=O)[C@@H](NC(=O)[C@H](CC(C)C)NC(=O)[C@@H](NC(=O)[C@H](CCCCN)NC(=O)[C@H](CCCN=C(N)N)NC(=O)[C@H](CCCCN)NC(=O)[C@H](CCCN=C(N)N)NC(=O)[C@@H](N)CCCCN)[C@@H](C)CC)[C@@H](C)CC)C(=O)N[C@@H](CCCCN)C(=O)N[C@@H](CCCN=C(N)N)C(=O)N[C@@H](CCCCN)C(=O)O [KRKRKILILIKRK] | – | – | – | – | – | – | – | – | – | – | – | – | – | 8 (≈ 13.5 µg/mL) | 0.5 (≈ 0.847 µg/mL) | –
8 | CC(C)[C@@H]1NC(=O)[C@H](CCCN=C(N)N)NC(=O)[C@H](C)NC(=O)[C@@H](NC(=O)[C@H](Cc2c[nH]c3ccccc23)NC(=O)[C@@H](N)CCCCN)CSSC[C@@H](C(=O)N[C@@H](CCCN=C(N)N)C(=O)O)NC(=O)[C@H](CCCN=C(N)N)NC(=O)[C@H](CCCN=C(N)N)NC(=O)[C@H](Cc2ccc(O)cc2)NC(=O)[C@@H]2CSSC[C@H](NC1=O)C(=O)N[C@@H](C)C(=O)N[C@@H](CCCN=C(N)N)C(=O)NCC(=O)N[C@@H](C)C(=O)N2 [KWCARVCARGACYRRCR] | > 7.77 | 7.77 (≈ 16 µg/mL) | 3.89 (≈ 7.98 µg/mL) | > 7.77 | > 7.77 | 7.77 (≈ 16 µg/mL) | > 7.77 | 7.77 (≈ 16 µg/mL) | 7.77 (≈ 16 µg/mL) | > 7.77 | 7.77 (≈ 16 µg/mL) | > 7.77 | 7.77 (≈ 16 µg/mL) | – | – | –
9 | CC[C@H](C)[C@@H]1NC(=O)CNC(=O)[C@H](CCCN=C(N)N)NC(=O)[C@H](Cc2ccc(O)cc2)NC(=O)[C@@H]2CSSC[C@H](NC1=O)C(=O)N[C@@H](Cc1ccc(O)cc1)C(=O)N[C@@H](CCCN=C(N)N)C(=O)N[C@@H](CCCN=C(N)N)C(=O)N[C@H](C(=O)N[C@@H](CCCN=C(N)N)C(=O)O)CSSC[C@H](NC(=O)[C@H](Cc1c[nH]c3ccccc13)NC(=O)[C@@H](N)CCCCN)C(=O)N[C@@H](C)C(=O)N[C@@H](CCCN=C(N)N)C(=O)N[C@@H](C(C)C)C(=O)N2 [KWCARVCYRGICYRRCR] | 0.912 (≈ 2 µg/mL) | 0.228 (≈ 0.499 µg/mL) | 0.057 (≈ 0.125 µg/mL) | 7.3 (≈ 16 µg/mL) | 1.82 (≈ 3.99 µg/mL) | 0.228 (≈ 0.499 µg/mL) | 0.228 (≈ 0.499 µg/mL) | 0.114 (≈ 0.25 µg/mL) | 3.65 (≈ 7.99 µg/mL) | 0.228 (≈ 0.499 µg/mL) | 0.228 (≈ 0.499 µg/mL) | 0.228 (≈ 0.499 µg/mL) | 0.228 (≈ 0.499 µg/mL) | – | – | –
10 | CC[C@H](C)[C@@H]1NC(=O)CNC(=O)[C@H](CCCN=C(N)N)NC(=O)[C@H](Cc2ccc(O)cc2)NC(=O)[C@@H]2CSSC[C@H](NC1=O)C(=O)N[C@@H](Cc1ccc(O)cc1)C(=O)N[C@@H](CCCN=C(N)N)C(=O)N[C@@H](CCCN=C(N)N)C(=O)N[C@H](C(=O)N[C@@H](CCCN=C(N)N)C(=O)O)CSSC[C@H](NC(=O)[C@H](Cc1c[nH]c3ccccc13)NC(=O)[C@@H](N)CCCCN)C(=O)NCC(=O)N[C@@H](CCCN=C(N)N)C(=O)N[C@@H](C(C)C)C(=O)N2 [KWCGRVCYRGICYRRCR] | 7.34 (≈ 16 µg/mL) | 0.918 (≈ 2 µg/mL) | 0.115 (≈ 0.25 µg/mL) | > 7.34 | 7.34 (≈ 16 µg/mL) | 0.918 (≈ 2 µg/mL) | 0.459 (≈ 0.998 µg/mL) | 0.23 (≈ 0.499 µg/mL) | 3.67 (≈ 7.99 µg/mL) | 0.23 (≈ 0.499 µg/mL) | 0.918 (≈ 2 µg/mL) | 0.459 (≈ 0.998 µg/mL) | 0.918 (≈ 2 µg/mL) | – | – | –
11 | CC[C@H](C)[C@H](NC(=O)[C@H](CC(C)C)NC(=O)[C@@H](NC(=O)[C@@H](N)CC(C)C)[C@@H](C)CC)C(=O)N[C@@H](CCCCN)C(=O)N[C@@H](CCCN=C(N)N)C(=O)N[C@@H](CCCCN)C(=O)O [LILIKRK] | – | – | – | – | – | – | – | – | – | – | – | – | – | ≥ 64 | ≥ 64 | –
